Reference: patent publication US20050250137A1, “Molecular targets of cancer and aging” (priority 2002, published 2005)

Test: GoMiner gene ontology analysis of differentially regulated genes
Set-up: species or system human
[1] = Biological process: Bbiological—process unknown, GO 0000004, Total 232
[2] = Biological process: Cell adhesion, GO 0007155, Total 361
[3] = Biological process: Cell death, GO 0008219, Total 272
[4] = Biological process: Cell differentiation, GO 0030154, Total 106
[5] = Biological process: Cell motility, GO 0006928, Total 222
[6] = Biological process: Cell organization and biogenesis, GO 0016043, Total 282
[7] = Biological process: Cell proliferation, GO 0008283, Total 667
[8] = Biological process: Cell-cell signaling, GO 0007267, Total 365
[9] = Biological process: Metabolism, GO 0008152, Total 3192
[10] = Biological process: Response to endogenous stimulus, GO 0009719, Total 134
[11] = Biological process: Response to extracellular stimulus, GO 0009991, Total 10
[12] = Biological process: Response to stress, GO 0006950, Total 501
[13] = Biological process: Signal transduction, GO 0007165, Total 1321
[14] = Biological process: Transport, GO 0006810, Total 873
[15] = Biological process: alcohol metabolism, GO 0006066, Total 151
[16] = Biological process: amine metabolism, GO 0009308, Total 175
[17] = Biological process: amino acid and derivative metabolism, GO 0006519, Total 149
[18] = Biological process: anti-apoptosis, GO 0006916, Total 59
[19] = Biological process: apoptotic program, GO 0008632, Total 26
[20] = Biological process: biosynthesis, GO 0009058, Total 525
[21] = Biological process: carbohydrate metabolism, GO 0005975, Total 228
[22] = Biological process: catabolism, GO 0009056, Total 450
[23] = Biological process: cell cycle, GO 0007049, Total 442
[24] = Biological process: cell migration, GO 0016477, Total 39
[25] = Biological process: cell surface receptor linked signal transduction, GO 0007166, Total 588
[26] = Biological process: cell—cell adhesion, GO 0016337, Total 124
[27] = Biological process: cytokinesis, GO 0000910, Total 64
[28] = Biological process: cytoplasm organization and biogenesis, GO 0007028, Total 166
[29] = Biological process: electron transport, GO 0006118, Total 150
[30] = Biological process: energy pathways, GO 0006091, Total 158
[31] = Biological process: induction of apoptosis, GO 0006917, Total 83
[32] = Biological process: induction of programmed cell death, GO 0012502, Total 83
[33] = Biological process: intracellular signaling cascade, GO 0007242, Total 444
[34] = Biological process: intracellular transport, GO 0046907, Total 258
[35] = Biological process: ion transport, GO 0006811, Total 320
[36] = Biological process: lipid metabolism, GO 0006629, Total 299
[37] = Biological process: lymphocyte differentiation, GO 0030098, Total 22
[38] = Biological process: nuclear organization and biogenesis, GO 0006997, Total 109
[39] = Biological process: nucleobase, nucleoside, nucleotide and nucleic acid metabolism, GO 0006139, Total 1351
[40] = Biological process: organic acid metabolism, GO 0006082, Total 226
[41] = Biological process: phosphorus metabolism, GO 0006793, Total 423
[42] = Biological process: protein metabolism, GO 0019538, Total 1170
[43] = Biological process: protein transport, GO 0015031, Total 223
[44] = Biological process: regulation of cell proliferation, GO 0042127, Total 175
[45] = Biological process: regulation of metabolism, GO 0019222, Total 32
[46] = Biological process: response to DNA damage stimulus (under Response to endogenous stimulus), GO 0006974, Total 133
[47] = Biological process: response to DNA damage stimulus (under Response to stress), GO 0006974, Total 133
[48] = Biological process: response to abiotic stimulus, GO 0009628, Total 224
[49] = Biological process: response to biotic stimulus, GO 0009607, Total 552
[50] = Biological process: response to external stimulus, GO 0009605, Total 813
[51] = Biological process: response to pest/pathogen/parasite, GO 0009613, Total 287
[52] = Biological process: response to wounding, GO 0009611, Total 173
[53] = Biological process: taxis, GO 0042330, Total 77
[54] = Biological process: vesicle-mediated transport, GO 0016192, Total 167

**Q.** What does the source list for `Nc1ncn([C@H]2C[C@H](O)[C@@H](CO)O2)c(=O)n1` [5-aza-dC, 5-aza-2′-deoxycytidine]?
**A.** 5-aza-dC Down [1]: 2; 5-aza-dC Up [1]: 6; 5-aza-dC Down [2]: 0; 5-aza-dC Up [2]: 7; 5-aza-dC Down [3]: 2; 5-aza-dC Up [3]: 15; 5-aza-dC Down [4]: 1; 5-aza-dC Up [4]: 5; 5-aza-dC Down [5]: 1; 5-aza-dC Up [5]: 1; 5-aza-dC Down [6]: 0; 5-aza-dC Up [6]: 12; 5-aza-dC Down [7]: 11; 5-aza-dC Up [7]: 18; 5-aza-dC Down [8]: 0; 5-aza-dC Up [8]: 11; 5-aza-dC Down [9]: 18; 5-aza-dC Up [9]: 78; 5-aza-dC Down [10]: 1; 5-aza-dC Up [10]: 2; 5-aza-dC Down [11]: 0; 5-aza-dC Up [11]: 1; 5-aza-dC Down [12]: 3; 5-aza-dC Up [12]: 21; 5-aza-dC Down [13]: 6; 5-aza-dC Up [13]: 33; 5-aza-dC Down [14]: 1; 5-aza-dC Up [14]: 12; 5-aza-dC Down [15]: 2; 5-aza-dC Up [15]: 4; 5-aza-dC Down [16]: 1; 5-aza-dC Up [16]: 3; 5-aza-dC Down [17]: 1; 5-aza-dC Up [17]: 3; 5-aza-dC Down [18]: 0; 5-aza-dC Up [18]: 5; 5-aza-dC Down [19]: 1; 5-aza-dC Up [19]: 3; 5-aza-dC Down [20]: 6; 5-aza-dC Up [20]: 7; 5-aza-dC Down [21]: 2; 5-aza-dC Up [21]: 4; 5-aza-dC Down [22]: 2; 5-aza-dC Up [22]: 9; 5-aza-dC Down [23]: 7; 5-aza-dC Up [23]: 14; 5-aza-dC Down [24]: 0; 5-aza-dC Up [24]: 1; 5-aza-dC Down [25]: 2; 5-aza-dC Up [25]: 14; 5-aza-dC Down [26]: 0; 5-aza-dC Up [26]: 1; 5-aza-dC Down [27]: 2; 5-aza-dC Up [27]: 0; 5-aza-dC Down [28]: 0; 5-aza-dC Up [28]: 1; 5-aza-dC Down [29]: 2; 5-aza-dC Up [29]: 4; 5-aza-dC Down [30]: 2; 5-aza-dC Up [30]: 1; 5-aza-dC Down [31]: 0; 5-aza-dC Up [31]: 3; 5-aza-dC Down [32]: 0; 5-aza-dC Up [32]: 3; 5-aza-dC Down [33]: 2; 5-aza-dC Up [33]: 10; 5-aza-dC Down [34]: 1; 5-aza-dC Up [34]: 6; 5-aza-dC Down [35]: 0; 5-aza-dC Up [35]: 2; 5-aza-dC Down [36]: 1; 5-aza-dC Up [36]: 4; 5-aza-dC Down [37]: 0; 5-aza-dC Up [37]: 3; 5-aza-dC Down [38]: 0; 5-aza-dC Up [38]: 11; 5-aza-dC Down [39]: 6; 5-aza-dC Up [39]: 41; 5-aza-dC Down [40]: 1; 5-aza-dC Up [40]: 3; 5-aza-dC Down [41]: 5; 5-aza-dC Up [41]: 9; 5-aza-dC Down [42]: 9; 5-aza-dC Up [42]: 27; 5-aza-dC Down [43]: 1; 5-aza-dC Up [43]: 7; 5-aza-dC Down [44]: 3; 5-aza-dC Up [44]: 8; 5-aza-dC Down [45]: 0; 5-aza-dC Up [45]: 1; 5-aza-dC Down [46]: 1; 5-aza-dC Up [46]: 2; 5-aza-dC Down [47]: 1; 5-aza-dC Up [47]: 2; 5-aza-dC Down [48]: 0; 5-aza-dC Up [48]: 8; 5-aza-dC Down [49]: 1; 5-aza-dC Up [49]: 26; 5-aza-dC Down [50]: 2; 5-aza-dC Up [50]: 30; 5-aza-dC Down [51]: 1; 5-aza-dC Up [51]: 17; 5-aza-dC Down [52]: 1; 5-aza-dC Up [52]: 14; 5-aza-dC Down [53]: 0; 5-aza-dC Up [53]: 7; 5-aza-dC Down [54]: 0; 5-aza-dC Up [54]: 2; 5-aza-dC Down (Cellular component: Cellular—component unknown, GO 0008372, Total 266): 2
